# Results taken from ChEMBL document CHEMBL6127040, “Discovery and optimization of isoliquiritigenin as a death-associated protein kinase 1 inhibitor” (Eur J Med Chem, 2024).
# Legend:
# [1] = target: Death-associated protein kinase 1 (Homo sapiens) (UniProt P53355)
# Description: Binding affinity to DAPK1 (unknown origin) assessed as change in enthalpy by ITC analysis
# [2] = target: Death-associated protein kinase 1 (Homo sapiens) (UniProt P53355); remark: listed apart in the source
# Description: Binding affinity to DAPK1 (unknown origin) assessed as change in entropy by ITC analysis
# [3] = target: Death-associated protein kinase 1 (Homo sapiens) (UniProt P53355); remark: listed apart in the source
# Description: Binding affinity to DAPK1 (unknown origin) assessed as change in Gibbs free energy by ITC analysis
# Sequence of Death-associated protein kinase 1 (Homo sapiens) (P53355 whole entry, looked up): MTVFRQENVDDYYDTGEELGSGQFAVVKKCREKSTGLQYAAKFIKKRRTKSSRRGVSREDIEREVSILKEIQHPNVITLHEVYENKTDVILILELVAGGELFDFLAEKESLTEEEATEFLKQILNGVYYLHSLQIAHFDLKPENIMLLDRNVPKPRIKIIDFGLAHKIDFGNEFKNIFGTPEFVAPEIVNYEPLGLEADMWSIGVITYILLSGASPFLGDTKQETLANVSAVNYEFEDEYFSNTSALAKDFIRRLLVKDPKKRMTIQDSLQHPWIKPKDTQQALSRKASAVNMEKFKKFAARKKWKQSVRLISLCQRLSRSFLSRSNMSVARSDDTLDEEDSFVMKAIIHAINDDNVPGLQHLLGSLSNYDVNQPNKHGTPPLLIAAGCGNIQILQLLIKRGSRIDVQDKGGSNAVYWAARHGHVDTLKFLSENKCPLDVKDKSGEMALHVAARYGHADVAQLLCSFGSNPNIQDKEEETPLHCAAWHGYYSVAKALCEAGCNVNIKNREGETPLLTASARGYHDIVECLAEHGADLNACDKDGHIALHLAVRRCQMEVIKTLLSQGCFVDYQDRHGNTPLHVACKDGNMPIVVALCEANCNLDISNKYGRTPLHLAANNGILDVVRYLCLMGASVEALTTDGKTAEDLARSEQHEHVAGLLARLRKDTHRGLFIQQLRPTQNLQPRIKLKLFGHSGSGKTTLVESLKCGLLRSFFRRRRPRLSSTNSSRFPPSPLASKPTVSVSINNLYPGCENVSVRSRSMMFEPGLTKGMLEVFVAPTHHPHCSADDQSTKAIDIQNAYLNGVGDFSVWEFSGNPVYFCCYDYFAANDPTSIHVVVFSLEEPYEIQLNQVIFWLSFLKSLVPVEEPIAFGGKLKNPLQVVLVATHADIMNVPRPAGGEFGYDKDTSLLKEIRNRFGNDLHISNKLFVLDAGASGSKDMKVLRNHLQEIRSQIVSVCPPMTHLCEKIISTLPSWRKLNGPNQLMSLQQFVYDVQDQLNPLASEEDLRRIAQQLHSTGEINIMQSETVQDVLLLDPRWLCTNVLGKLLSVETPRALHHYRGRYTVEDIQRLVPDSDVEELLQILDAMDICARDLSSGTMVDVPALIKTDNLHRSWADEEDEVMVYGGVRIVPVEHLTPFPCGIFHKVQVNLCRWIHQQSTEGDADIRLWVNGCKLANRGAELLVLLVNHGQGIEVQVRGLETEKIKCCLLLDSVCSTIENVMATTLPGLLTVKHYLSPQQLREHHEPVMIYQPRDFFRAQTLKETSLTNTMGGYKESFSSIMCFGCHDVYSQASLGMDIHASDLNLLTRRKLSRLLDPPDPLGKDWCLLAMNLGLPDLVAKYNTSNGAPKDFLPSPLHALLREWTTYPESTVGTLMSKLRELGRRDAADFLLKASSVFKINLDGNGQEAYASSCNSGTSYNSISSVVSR
smiles,measurement,setting,value
O=C(/C=C/c1ccc(O)cc1)c1ccc(O)cc1O,deltaH,[1],-9.55 kcal/mol
same,-TdeltaS,[2],1.9 kcal/mol
same,deltaG,[3],-7.66 kcal/mol
